What was measured:
[1] = biological target: EGFR kinase (Homo sapiens (Human), UniProt P00533); experiment: EGFR kinase inhibition; type: biochemical; conditions: Table 3; read-out: EGFR kinase
[2] = A431 cytotoxicity assay; type: cell-based; conditions: human, A431 cells; Table 3
[3] = system: K-562; experiment: NCI In-Vitro Testing, Leukemia; type: cell-based
[4] = system: HOP-52; experiment: NCI In-Vitro Testing, Non-Small Cell Lung Cancer; type: cell-based
[5] = system: NCI-H226; experiment: NCI In-Vitro Testing, Non-Small Cell Lung Cancer; type: cell-based
[6] = system: NCI-H522; experiment: NCI In-Vitro Testing, Non-Small Cell Lung Cancer; type: cell-based
[7] = system: SF-295; experiment: NCI In-Vitro Testing, CNS Cancer; type: cell-based
[8] = system: LOXIMVI; experiment: NCI In-Vitro Testing, Melanoma; type: cell-based
[9] = system: SK-MEL-23; experiment: NCI In-Vitro Testing, Melanoma; type: cell-based
[10] = system: OVCAR-3; experiment: NCI In-Vitro Testing, Ovarian Cancer; type: cell-based
[11] = system: OVCAR-5; experiment: NCI In-Vitro Testing, Ovarian Cancer; type: cell-based
[12] = system: OVCAR-6; experiment: NCI In-Vitro Testing, Ovarian Cancer; type: cell-based
[13] = system: ACHN; experiment: NCI In-Vitro Testing, Renal Cancer; type: cell-based
[14] = system: TK-10; experiment: NCI In-Vitro Testing, Renal Cancer; type: cell-based
[15] = system: DU-145; experiment: NCI In-Vitro Testing, Prostate Cancer; type: cell-based
[16] = system: MDA-MB-231/ATCC; experiment: NCI In-Vitro Testing, Breast Cancer; type: cell-based
[17] = system: HS 576T; experiment: NCI In-Vitro Testing, Breast Cancer; type: cell-based
[18] = system: BT-549; experiment: NCI In-Vitro Testing, Breast Cancer; type: cell-based
[19] = system: T-47D; experiment: NCI In-Vitro Testing, Breast Cancer; type: cell-based
[20] = system: 60 tumor cell line panel; experiment: NCI 60 preclinical in vitro tumor screening panel; conditions: read-out: GI50 across tumor panel

EGFR kinase, sequence (P00533 25-1210): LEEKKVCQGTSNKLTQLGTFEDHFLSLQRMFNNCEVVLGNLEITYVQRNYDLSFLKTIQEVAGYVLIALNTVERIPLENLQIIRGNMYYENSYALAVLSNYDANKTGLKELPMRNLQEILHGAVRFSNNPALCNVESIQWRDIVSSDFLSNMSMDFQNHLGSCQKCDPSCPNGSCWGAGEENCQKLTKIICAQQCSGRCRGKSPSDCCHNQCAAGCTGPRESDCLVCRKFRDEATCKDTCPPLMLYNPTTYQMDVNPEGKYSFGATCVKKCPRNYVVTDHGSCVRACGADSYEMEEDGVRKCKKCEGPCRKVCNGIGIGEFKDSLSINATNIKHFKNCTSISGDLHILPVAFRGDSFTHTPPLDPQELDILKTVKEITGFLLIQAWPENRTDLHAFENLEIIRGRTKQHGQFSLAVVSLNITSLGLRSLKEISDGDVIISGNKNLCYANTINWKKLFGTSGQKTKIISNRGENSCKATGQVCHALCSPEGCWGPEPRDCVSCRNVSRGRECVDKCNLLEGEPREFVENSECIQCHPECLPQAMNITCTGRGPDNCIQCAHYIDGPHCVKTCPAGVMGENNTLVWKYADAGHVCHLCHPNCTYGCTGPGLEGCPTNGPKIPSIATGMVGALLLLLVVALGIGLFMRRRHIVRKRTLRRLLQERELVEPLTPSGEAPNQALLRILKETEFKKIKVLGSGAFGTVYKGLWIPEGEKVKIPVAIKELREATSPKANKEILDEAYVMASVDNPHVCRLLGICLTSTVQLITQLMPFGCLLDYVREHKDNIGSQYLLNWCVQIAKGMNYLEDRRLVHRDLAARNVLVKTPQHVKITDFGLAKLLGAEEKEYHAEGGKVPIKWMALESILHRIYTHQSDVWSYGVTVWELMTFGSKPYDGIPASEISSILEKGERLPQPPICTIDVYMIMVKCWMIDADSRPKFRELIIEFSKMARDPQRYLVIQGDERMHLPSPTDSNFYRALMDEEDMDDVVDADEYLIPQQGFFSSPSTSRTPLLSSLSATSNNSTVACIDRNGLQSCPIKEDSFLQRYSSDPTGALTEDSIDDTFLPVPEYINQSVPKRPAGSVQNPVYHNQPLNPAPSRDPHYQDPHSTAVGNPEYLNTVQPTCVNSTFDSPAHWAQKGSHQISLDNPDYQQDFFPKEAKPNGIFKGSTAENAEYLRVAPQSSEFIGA

Nc1nc2c(c(Nc3ccc(Cl)cc3)n1)-c1ccccc1C2 [AAG145-136]
IC50 [1]: 26 µM
IC50 [2]: 9.7 µM
GI50 [3]: 3.56E−7 Molar
LC50 [3]: >1.00E−4 Molar
TGI [3]: >1.00E−4 Molar
Percent Growth ([3]; Log10 Concentration −4.0 Molar): 26%
Percent Growth ([3]; Log10 Concentration −5.0 Molar): 16%
Percent Growth ([3]; Log10 Concentration −6.0 Molar): 20%
Percent Growth ([3]; Log10 Concentration −7.0 Molar): 89%
Percent Growth ([3]; Log10 Concentration −8.0 Molar): 103%
GI50 [4]: 6.54E−7 Molar
LC50 [4]: >1.00E−4 Molar
TGI [4]: >1.00E−4 Molar
Percent Growth ([4]; Log10 Concentration −4.0 Molar): 32%
Percent Growth ([4]; Log10 Concentration −5.0 Molar): 25%
Percent Growth ([4]; Log10 Concentration −6.0 Molar): 40%
Percent Growth ([4]; Log10 Concentration −7.0 Molar): 94%
Percent Growth ([4]; Log10 Concentration −8.0 Molar): 97%
GI50 [5]: 2.14E−6 Molar
LC50 [5]: >1.00E−4 Molar
TGI [5]: >1.00E−4 Molar
Percent Growth ([5]; Log10 Concentration −4.0 Molar): 14%
Percent Growth ([5]; Log10 Concentration −5.0 Molar): 36%
Percent Growth ([5]; Log10 Concentration −6.0 Molar): 57%
Percent Growth ([5]; Log10 Concentration −7.0 Molar): 97%
Percent Growth ([5]; Log10 Concentration −8.0 Molar): 98%
GI50 [6]: 6.22E−7 Molar
LC50 [6]: >1.00E−4 Molar
TGI [6]: 3.88E−5 Molar
Percent Growth ([6]; Log10 Concentration −4.0 Molar): −10%
Percent Growth ([6]; Log10 Concentration −5.0 Molar): 14%
Percent Growth ([6]; Log10 Concentration −6.0 Molar): 40%
Percent Growth ([6]; Log10 Concentration −7.0 Molar): 89%
Percent Growth ([6]; Log10 Concentration −8.0 Molar): 96%
GI50 [7]: 5.47E−7 Molar
LC50 [7]: >1.00E−4 Molar
TGI [7]: >1.00E−4 Molar
Percent Growth ([7]; Log10 Concentration −4.0 Molar): 17%
Percent Growth ([7]; Log10 Concentration −5.0 Molar): 20%
Percent Growth ([7]; Log10 Concentration −6.0 Molar): 34%
Percent Growth ([7]; Log10 Concentration −7.0 Molar): 95%
Percent Growth ([7]; Log10 Concentration −8.0 Molar): 105%
GI50 [8]: 3.08E−7 Molar
LC50 [8]: >1.00E−4 Molar
TGI [8]: >1.00E−4 Molar
Percent Growth ([8]; Log10 Concentration −4.0 Molar): 15%
Percent Growth ([8]; Log10 Concentration −5.0 Molar): 11%
Percent Growth ([8]; Log10 Concentration −6.0 Molar): 16%
Percent Growth ([8]; Log10 Concentration −7.0 Molar): 52%
Percent Growth ([8]; Log10 Concentration −8.0 Molar): 106%
GI50 [9]: 1.51E−8 Molar
LC50 [9]: >1.00E−4 Molar
TGI [9]: >1.00E−4 Molar
Percent Growth ([9]; Log10 Concentration −4.0 Molar): 41%
Percent Growth ([9]; Log10 Concentration −5.0 Molar): 32%
Percent Growth ([9]; Log10 Concentration −6.0 Molar): 54%
Percent Growth ([9]; Log10 Concentration −7.0 Molar): 97%
Percent Growth ([9]; Log10 Concentration −8.0 Molar): 105%
GI50 [10]: 2.48E−6 Molar
LC50 [10]: >1.00E−4 Molar
TGI [10]: >1.00E−4 Molar
Percent Growth ([10]; Log10 Concentration −4.0 Molar): 14%
Percent Growth ([10]; Log10 Concentration −5.0 Molar): 22%
Percent Growth ([10]; Log10 Concentration −6.0 Molar): 66%
Percent Growth ([10]; Log10 Concentration −7.0 Molar): 86%
Percent Growth ([10]; Log10 Concentration −8.0 Molar): 91%
LC50 [11]: >1.00E−4 Molar
TGI [11]: >1.00E−4 Molar
Percent Growth ([11]; Log10 Concentration −4.0 Molar): 58%
Percent Growth ([11]; Log10 Concentration −5.0 Molar): 47%
Percent Growth ([11]; Log10 Concentration −6.0 Molar): 56%
Percent Growth ([11]; Log10 Concentration −7.0 Molar): 77%
Percent Growth ([11]; Log10 Concentration −8.0 Molar): 96%
GI50 [12]: 2.16E−7 Molar
LC50 [12]: >1.00E−4 Molar
TGI [12]: >1.00E−4 Molar
Percent Growth ([12]; Log10 Concentration −4.0 Molar): 18%
Percent Growth ([12]; Log10 Concentration −5.0 Molar): 25%
Percent Growth ([12]; Log10 Concentration −6.0 Molar): 36%
Percent Growth ([12]; Log10 Concentration −7.0 Molar): 57%
Percent Growth ([12]; Log10 Concentration −8.0 Molar): 102%
GI50 [13]: 3.42E−7 Molar
LC50 [13]: >1.00E−4 Molar
TGI [13]: 1.41E−5 Molar
Percent Growth ([13]; Log10 Concentration −4.0 Molar): −22%
Percent Growth ([13]; Log10 Concentration −5.0 Molar): 4%
Percent Growth ([13]; Log10 Concentration −6.0 Molar): 21%
Percent Growth ([13]; Log10 Concentration −7.0 Molar): 83%
Percent Growth ([13]; Log10 Concentration −8.0 Molar): 89%
GI50 [14]: 2.15E−6 Molar
LC50 [14]: >1.00E−4 Molar
TGI [14]: >1.00E−4 Molar
Percent Growth ([14]; Log10 Concentration −4.0 Molar): 27%
Percent Growth ([14]; Log10 Concentration −5.0 Molar): 34%
Percent Growth ([14]; Log10 Concentration −6.0 Molar): 58%
Percent Growth ([14]; Log10 Concentration −7.0 Molar): 113%
Percent Growth ([14]; Log10 Concentration −8.0 Molar): 110%
GI50 [15]: 2.12E−7 Molar
LC50 [15]: >1.00E−4 Molar
TGI [15]: >1.00E−4 Molar
Percent Growth ([15]; Log10 Concentration −4.0 Molar): 7%
Percent Growth ([15]; Log10 Concentration −5.0 Molar): 18%
Percent Growth ([15]; Log10 Concentration −6.0 Molar): 37%
Percent Growth ([15]; Log10 Concentration −7.0 Molar): 56%
Percent Growth ([15]; Log10 Concentration −8.0 Molar): 95%
GI50 [16]: 6.41E−7 Molar
LC50 [16]: >1.00E−4 Molar
TGI [16]: >1.00E−4 Molar
Percent Growth ([16]; Log10 Concentration −4.0 Molar): 30%
Percent Growth ([16]; Log10 Concentration −5.0 Molar): 29%
Percent Growth ([16]; Log10 Concentration −6.0 Molar): 45%
Percent Growth ([16]; Log10 Concentration −7.0 Molar): 70%
Percent Growth ([16]; Log10 Concentration −8.0 Molar): 92%
GI50 [17]: 2.22E−6 Molar
LC50 [17]: >1.00E−4 Molar
TGI [17]: 2.94E−5 Molar
Percent Growth ([17]; Log10 Concentration −4.0 Molar): −13%
Percent Growth ([17]; Log10 Concentration −5.0 Molar): 11%
Percent Growth ([17]; Log10 Concentration −6.0 Molar): 71%
Percent Growth ([17]; Log10 Concentration −7.0 Molar): 97%
Percent Growth ([17]; Log10 Concentration −8.0 Molar): 104%
GI50 [18]: 2.83E−6 Molar
LC50 [18]: >1.00E−4 Molar
TGI [18]: 7.58E−5 Molar
Percent Growth ([18]; Log10 Concentration −4.0 Molar): −4%
Percent Growth ([18]; Log10 Concentration −5.0 Molar): 32%
Percent Growth ([18]; Log10 Concentration −6.0 Molar): 65%
Percent Growth ([18]; Log10 Concentration −7.0 Molar): 85%
Percent Growth ([18]; Log10 Concentration −8.0 Molar): 103%
GI50 [19]: 2.90E−6 Molar
LC50 [19]: >1.00E−4 Molar
TGI [19]: >1.00E−4 Molar
Percent Growth ([19]; Log10 Concentration −4.0 Molar): 27%
Percent Growth ([19]; Log10 Concentration −5.0 Molar): 34%
Percent Growth ([19]; Log10 Concentration −6.0 Molar): 63%
Percent Growth ([19]; Log10 Concentration −7.0 Molar): 83%
Percent Growth ([19]; Log10 Concentration −8.0 Molar): 88%
GI50 [20]: 0.0312 to 1 µM
